Assay results from PubChem BioAssay AID1996.
In brackets after ≈: the same amount, converted by molar mass.

Conditions: buffer; pH 7.4; 200.0 µM

Compound | solubility kinetic
CCNc1nc2c(c(=O)n(C)c(=O)n2C)n1CCCc1ccccc1 | 38.2 µg/mL (≈ 112 µM)
O=C(Nc1ccccc1Oc1ccccc1)c1cccs1 | 15.2 µg/mL (≈ 51.5 µM)
CCC(C)NC(=O)c1ccc2nc(Cc3ccc(OC)cc3)oc2c1 (centres undefined) | 4.7 µg/mL (≈ 13.9 µM)
COC(=O)/C=C1\SC(=NC(=O)c2ccc(C)cc2)NC1=O | 44.5 µg/mL (≈ 146 µM)
O=C(COC(=O)c1ccc(O)cc1)Nc1ccc2c(c1)OCCO2 | 21.9 µg/mL (≈ 66.5 µM)
CSc1cccc(NC(=S)NC(=O)c2cccnc2)c1 | 5.1 µg/mL (≈ 16.8 µM)
CN(Cc1ccccc1Cl)C(=O)c1cnccc1C(F)(F)F | > 49.3 µg/mL
Br.CN(C)C1=NCC(CSC(=N)N)S1 (centres undefined) | 32.5 µg/mL
CN(C)CCn1c(=S)[nH]c2ccc(Cl)cc2c1=O | > 42.6 µg/mL
O=C(CCSCc1ccccc1F)NCc1cccs1 | > 46.4 µg/mL
Cn1c(C(=O)c2ccccc2[N+](=O)[O-])nc2ccccc21 | 36.1 µg/mL (≈ 128 µM)
CC(C)CC(=O)Nc1cc2c3c(c1)C(C)C(=O)N3CCC2 (centres undefined) | > 43 µg/mL
CCCCOc1ccccc1C1NC(=O)CCC1[N+](=O)[O-] (centres undefined) | > 43.9 µg/mL
O=C(CSc1nc2ccccc2c2c1CCCC2)N1CCOCC1 | 9.9 µg/mL (≈ 28.9 µM)
COc1ccc(NC(=O)Nc2ccc3nonc3c2)cc1 | 5.3 µg/mL (≈ 18.6 µM)
COc1ccc(CCC(=O)Nc2ccc(C(=O)c3ccncc3)cc2)cc1 | 3.8 µg/mL (≈ 10.5 µM)
CC(NC(=O)C1CCC(C)(C(=O)O)C1(C)C)c1ccccc1 (centres undefined) | > 45.5 µg/mL
CN1C(=O)N(CC(=O)Nc2nccs2)C(=O)C12CCCCC2 | > 48.4 µg/mL
O=C(NC1CCCCC1)c1ccc(-c2ccccc2[N+](=O)[O-])o1 | 2.9 µg/mL (≈ 9.23 µM)
CC(=O)Nc1ccc2c(c1)nc(CCN1CCN(c3ccccn3)CC1)n2C | < 0.1 µg/mL
COc1cccc2cc(C(=O)NCCc3ccccc3)c(=O)oc12 | < 0.7 µg/mL
Cc1cc(C)c2c3c(sc2n1)C(=O)N(c1ccccc1C)CC(=O)N3 | 25.5 µg/mL (≈ 72.6 µM)
CCCOc1ccc(N2C(=O)CC(NCC#N)C2=O)cc1 (centres undefined) | 41 µg/mL (≈ 143 µM)
CC(NC1c2ccccc2-c2ccccc21)c1ccccc1 (centres undefined) | < 0.6 µg/mL

Compound | solubility kinetic
O=C(Cn1ccc([N+](=O)[O-])n1)NCc1cccnc1 | > 39.2 µg/mL
CN(c1ccccc1)S(=O)(=O)c1cccc(C(=O)NCC(=O)Nc2ccc(F)c(F)c2F)c1 | 5.3 µg/mL (≈ 11.1 µM)
COC(=O)[C@H](Cc1ccccc1)NC(=O)N1CCCCC1 | > 43.6 µg/mL
COCC(C)n1c(C)cc(C(=O)COC(=O)c2cccn2C)c1C (centres undefined) | > 49.9 µg/mL
Cc1nc(NCCOc2ccccc2)sc1C(=O)Nc1ccccc1 | 2 µg/mL (≈ 5.66 µM)
COc1ccc(S(=O)(=O)N2CCCCC2)cc1NC(=O)Cn1cnc2c1c(=O)n(C)c(=O)n2C | 28.5 µg/mL (≈ 58.1 µM)
COc1cccc(NC(=O)CN(C)C(=O)CC(C)c2ccccc2)c1 (centres undefined) | 40 µg/mL (≈ 118 µM)
CCCCCc1ccc(CC(=O)N2CCOCC2)cc1 | 38.6 µg/mL (≈ 140 µM)
N#Cc1ccc(-c2ccc(OCC3CNC(=O)O3)cc2)cc1 (centres undefined) | 11.3 µg/mL (≈ 38.4 µM)
COc1ccc2nc(NC(=O)c3ccccc3C(=O)O)sc2c1 | > 49.3 µg/mL
CCCC(=O)c1c[nH]c(C(=O)NCc2cccnc2)c1 | 18.1 µg/mL (≈ 66.7 µM)
CC(C)=CCN1CCN(Cc2cc3ccccc3[nH]2)CC1CCO (centres undefined) | 45.8 µg/mL (≈ 140 µM)
N/C(=N\OC(=O)c1ccccc1Cl)c1cccc([N+](=O)[O-])c1 | 1.7 µg/mL (≈ 5.32 µM)
c1ccc(-c2cc3ccccc3[nH]2)cc1 | 0.7 µg/mL (≈ 3.62 µM)
C[C@@H]1C(NC(=O)c2ccccc2)CC2CC1C2(C)C (some centres undefined) | 6.4 µg/mL (≈ 24.9 µM)
Cc1ccc(NC(=O)CCN2CCC(C(N)=O)CC2)cc1 | > 43.4 µg/mL
COc1ccccc1CNC(=O)COc1ccccc1C | 38.4 µg/mL (≈ 135 µM)
Cc1cc(C(=O)OCC(=O)N2CCOCC2)ccc1[N+](=O)[O-] | > 46.2 µg/mL
COc1ccc(CNC/C=C/c2ccccc2)cc1.Cl | > 43.5 µg/mL
CC(=O)/C(=C\N(C)C)Sc1ccc(Cl)cc1 | 17.6 µg/mL (≈ 68.8 µM)
CN1CCN(c2nc(-c3cccc([N+](=O)[O-])c3)nc3ccccc23)CC1 | 8.5 µg/mL (≈ 24.3 µM)
Clc1ccc(-c2nc(NCCCN3CCOCC3)c3ccccc3n2)cc1 | 1.4 µg/mL (≈ 3.66 µM)
CCc1noc(C)c1C(=O)NCCc1ccc(S(N)(=O)=O)cc1 | > 50.6 µg/mL
CN(C)/C(=N\S(=O)(=O)c1ccccc1)c1ccccc1 | > 43.3 µg/mL

Compound | solubility kinetic
Cc1cc(C(=O)Nc2ccccc2)c2ccccc2n1 | 3 µg/mL (≈ 11.4 µM)
COC(=O)c1cc(=O)n(-c2c(Cl)cc(C(F)(F)F)cc2Cl)[nH]1 | > 53.3 µg/mL
CCc1nc(C(N)=O)c2[nH]c(=O)n(-c3ccc(OC)cc3OC)c2n1 | > 51.5 µg/mL
CN/C(=C/[N+](=O)[O-])NCCSCc1ccc(CN(C)C)o1.Cl | 52.4 µg/mL
Cc1ccc[n+](CC(=O)Nc2ccc(Cl)c([N+](=O)[O-])c2)c1.[Cl-] | > 51.3 µg/mL
CC1(C)C(=O)Nc2ccccc2N1C(=O)COC(=O)c1cc(Cl)cc(Cl)c1 | 2.8 µg/mL (≈ 6.88 µM)
O=C([O-])c1cc(-c2cccnc2)nc2ccccc12.[K+] | 8.7 µg/mL
NC(=O)c1ccsc1NC(=O)Cc1ccc([N+](=O)[O-])cc1 | 12 µg/mL (≈ 39.3 µM)
C=CCNC(=O)COc1c(C)ccc(C)c1C | > 35 µg/mL
Cc1ccc([N+](=O)[O-])cc1NC(=O)c1cccnc1 | > 38.6 µg/mL
O=S(=O)(c1ccccc1)N(CC1CO1)c1ccccc1 (centres undefined) | > 43.4 µg/mL
CCc1c(C)nc(N)c(C#N)c1-c1ccccc1 | 0.3 µg/mL (≈ 1.26 µM)
O=c1[nH]c2ccc(NS(=O)(=O)c3ccc(F)c(Cl)c3)cc2[nH]1 | 7.5 µg/mL (≈ 21.9 µM)
COc1ccccc1-n1c(/C=C/c2ccccn2)nc2ccccc2c1=O | 7.3 µg/mL (≈ 20.5 µM)
CC(C)CN(C(=O)c1ccco1)c1nc2ccccc2s1 | 2.2 µg/mL (≈ 7.32 µM)
Cc1cccc(C(=O)Nc2cccc(C(=O)NC3CCCC3)c2)c1 | 23.6 µg/mL (≈ 73.2 µM)
O=C(O)C1C2CCC(O2)C1C(=O)Nc1ccc(F)c(F)c1 (centres undefined) | 40.5 µg/mL (≈ 136 µM)
O=C(NCC1CCCO1)c1cc2ccccc2nc1Cl (centres undefined) | > 43.6 µg/mL
CS(=O)(=O)c1ccccc1C(=O)NC1CCCc2ccccc21 (centres undefined) | > 49.4 µg/mL
CCn1c(=O)c(C(=O)NCCCc2ccccc2)c(O)c2ccccc21 | < 0.4 µg/mL
CNc1snc(C)c1C(=O)OCC(=O)N(C)Cc1ccccc1 | 49.8 µg/mL (≈ 149 µM)
CCCCN1C(=O)C2(OCCCO2)c2cccc(C)c21 | 25.1 µg/mL (≈ 91.2 µM)
OC1/C(=C/c2ccc(Cl)cc2Cl)N2CCC1CC2 (centres undefined) | 28 µg/mL (≈ 98.5 µM)
Clc1ccc(N=c2ssnc2Cl)nc1 | 1 µg/mL (≈ 3.79 µM)

Compound | solubility kinetic
Cc1ccc(C(=O)Nc2ccc(C(=O)N3CCCCC3)cc2)o1 | > 46.9 µg/mL
Cc1ccc(S(=O)(=O)N2CCOCC2)cc1NC(=O)Nc1ccc([N+](=O)[O-])cc1 | 1.8 µg/mL (≈ 4.28 µM)
COc1ccc(Cl)cc1NC(=S)NCCN1CCOCC1 | > 49.5 µg/mL
CC(=O)c1cccc(NC(=O)CO/N=C2/CCCc3nonc32)c1 | 45.7 µg/mL (≈ 139 µM)
COc1ccc(C(=O)OC(C)CN2CCN(C)CC2)cc1.Cl (centres undefined) | > 49.3 µg/mL
O=C(CCNS(=O)(=O)c1ccc(F)c(F)c1)NCCN1CCOCC1 | > 56.6 µg/mL
O=C(c1cccc(O)c1)N1CCN(C(=O)C2CC2)CC1 | > 41.1 µg/mL
O=C(Cn1cc(C(F)(F)F)ccc1=O)Nc1ccc2c(c1)OCCO2 | 25.2 µg/mL (≈ 71.1 µM)
COc1ccc(S(=O)(=O)NC(C)C(=O)NCc2ccncc2)cc1C (centres undefined) | 51.9 µg/mL (≈ 143 µM)
S=c1nc(-c2ccc(Br)cc2)[nH]c2ccccc12 | 0.7 µg/mL (≈ 2.21 µM)
CC(C)N1C(=O)C(=O)N(CC(=O)N2CCc3ccccc32)C1=O | > 47.3 µg/mL
Cc1cnc(=O)[nH]c1SCc1ccc([N+](=O)[O-])cc1 | 22.1 µg/mL (≈ 79.7 µM)
CCOC(=O)Cc1csc(NC(=O)CN2CCCCC2)n1 | 41.6 µg/mL (≈ 134 µM)
CN1CCN(C(=O)c2cc(=O)c3cc(Cl)ccc3o2)CC1 | > 46 µg/mL
Cc1ccc(NC(=O)c2cc(CC(C)C)nc3ccccc23)cc1 | 0.6 µg/mL (≈ 1.88 µM)
CC(=O)NC(CC(=O)N1CCN(C(C)=O)CC1)c1ccccc1 (centres undefined) | > 47.6 µg/mL
COC(=O)Cn1c(C(O)c2ccccc2)nc2ccccc21 (centres undefined) | > 44.4 µg/mL
Fc1ccc(CNCCc2ccc3c(c2)OCO3)cc1 | 31.1 µg/mL (≈ 114 µM)
O=C1NC(=Nc2ccccc2Br)SC1(CO)CO | > 49.7 µg/mL
Cc1cc(C(=O)NC2CCCC(C)C2C)c2ccccc2n1 (centres undefined) | 18.9 µg/mL (≈ 63.8 µM)
CS(=O)(=O)N(CC(=O)Nc1ccc(Br)cc1)C1CCCCC1 | 55.5 µg/mL (≈ 143 µM)
S=C(NC1CCCCC1)N1CCN(c2ncccn2)CC1 | 9.6 µg/mL (≈ 31.4 µM)
Cc1ccc(NC(=S)NCC(O)c2ccccc2)c(C)c1 (centres undefined) | 44.3 µg/mL (≈ 147 µM)
CSc1nc2ccccc2c(=O)n1-c1cccnc1 | 34.8 µg/mL (≈ 129 µM)

Compound | solubility kinetic
Cc1ccc2[nH]cc(CCNS(=O)(=O)c3ccc(F)cc3)c2c1 | 23 µg/mL (≈ 69.2 µM)
Cc1ccc(-c2csc(CC(N)=O)n2)cc1 | > 34.8 µg/mL
Cn1c(=O)c([N+](=O)[O-])c(-n2cnc3ccccc32)c2ccccc21 | > 48 µg/mL
O=C(NC(=S)NC1CCS(=O)(=O)C1)c1ccccc1 (centres undefined) | > 44.8 µg/mL
COc1ccc(NC(=O)CS(=O)(=O)c2ccccc2)cc1 | > 45.8 µg/mL
CCc1ccc(-c2cc(C(=O)O)c3ccccc3n2)s1 | > 42.5 µg/mL
NC(=O)c1ccccc1NCC(=O)c1ccc(F)cc1 | > 40.8 µg/mL
CCOc1ncccc1C(=O)Nc1nc(C(C)(C)C)cs1 | 0.6 µg/mL (≈ 1.96 µM)
CCCN1CCC(NCC(C)c2ccccc2)CC1 (centres undefined) | 38.8 µg/mL (≈ 149 µM)
Cc1ccc(Sc2ccc(C(=O)N(C)C)cc2[N+](=O)[O-])cc1 | 35 µg/mL (≈ 111 µM)
CCOC(=O)C[n+]1ccc2c([nH]c3ccccc32)c1C.[Br-] | 49.7 µg/mL
COC(=O)c1ccc(C)c(NS(=O)(=O)c2cn(C)nc2C)c1 | > 48.5 µg/mL
O=C(Nc1cc(Cl)ccc1N1CCOCC1)c1cccnc1 | > 47.7 µg/mL
CCOC(=O)Cc1csc(NC(=O)CN2C(=O)c3ccccc3C2=O)n1 | 54.3 µg/mL (≈ 145 µM)
COc1ccc(C(=O)NCC(=O)NCc2ccncc2)cc1 | > 44.9 µg/mL
CC(=O)N1CCCC1(C(=O)O)c1ccccc1 (centres undefined) | 33.8 µg/mL (≈ 145 µM)
Nc1cc(=O)[nH]c(SCc2ccccc2Cl)n1 | 6.9 µg/mL (≈ 25.8 µM)
O=C(Nc1ccccc1C(F)(F)F)N1CCN(c2ccccn2)CC1 | 49.9 µg/mL (≈ 142 µM)
CC(C)(C)CC(=O)NC(=S)NCc1ccccc1 | 1.7 µg/mL (≈ 6.43 µM)
CCOc1nc(C)cc(COC)c1C(N)=O | > 33.6 µg/mL
O=C1CSC(=S)N1c1ccc(Cl)c(Cl)c1 | < 0.6 µg/mL
Cc1cc(C(=O)N/N=C/c2cn(C)nc2C)c2ccccc2n1 | > 46.1 µg/mL
Cn1c(NN)nc2ccccc2c1=O | > 28.5 µg/mL
